System: TIG-3 cells
Assay: Evaluation test of mitochondrial function: amount of ATP production (decrease in oxygen consumption rate by oligomycin) after H2O2 treatment
Format: cell-based
Settings: for Measured value: amount of ATP production (amount of decrease in oxygen consumption rate by the ATP synthase inhibitor): TIG-3 cells cultured 24 h with test substance, then H2O2 800 μM for two hours, XF analyzer, concentrations of SE and PQQ·2Na per example; for Recovery rate (%) from Comparative Example 1: measured value divided by that of Comparative Example 1 (H2O2 800 μM only) x 100
Experimental: To examine mitochondrial function, TIG-3 cells at 5.5×10^3 cells/well were seeded onto cell culture plates, and cultured at 37° C. with CO2 (5%) for 24 hours. After 24 hours of culturing, compositions each containing a sesamin-episesamin mixture and PQQ were added to the media in the wells at the respective concentrations shown in Table 1 below, and cultured for 24 hours. Subsequently, the media containing the sesamin-episesamin mixture and the PQQ were removed, and the cells in the wells were treated with media containing H2O2 (800 μM) for two hours. Subsequently, each medium was replaced with an analysis medium, and the oxygen consumption rate was analyzed using an analyzer (XF analyzer, Agilent Technologies Japan, Ltd.). After completion of analysis, the nuclei were stained with Hoechst, and the cells were photographed by a fluorescence microscope “BZ-x” (Keyence Corporation). The number of cells was counted by image analysis. The amount of ATP production was the amount of decrease in oxygen consumption rate by the ATP synthase inhibitor (oligomycin).
(§1) To examine mitochondrial function, TIG-3 cells at 5.5×10^3 cells/well were seeded onto a dedicated plate, and cultured at 37° C. with CO2 (5%) for 24 hours. The cells were further cultured for 26 hours without adding a sesamin-episesamin mixture and a composition containing PQQ to the medium 24 hours after the first culturing and without treating cells in the well with a medium containing H2O2 (800 μM) for two hours. Then, the oxygen consumption rate in Reference Example 1 was analyzed and the number of cells was counted as in Example 1, except for the differences described above. The amount of ATP production was also measured.
as §1, with “24” for “26”, “culturing.” for “culturing and without treating cells in the well with a medium containing H2O2 (800 μM) for two hours.”, “Comparative” for “Reference”
To examine mitochondrial function, TIG-3 cells at 5.5×10^3 cells/well were seeded onto a dedicated plate, and cultured at 37° C. with CO2 (5%) for 24 hours. After 24 hours of culturing, a sesamin-episesamin mixture or PQQ was added to each medium in the wells at the corresponding concentration shown in Table 1 below, and cultured for 24 hours. Except what is described above, the oxygen consumption rate in each of Comparative Examples 2 to 9 was analyzed, and the number of cells was counted as in Example 1. The amount of ATP production was measured.
In Table 1, values in “Measured value” (pmol/min/10^3 cells) show the amount of ATP production (the amount of decrease in oxygen consumption rate by the ATP synthase inhibitor) determined above.
Values in “Recovery rate (%) from Comparative Example 1” are each obtained by dividing a measured value in one example or comparative example by the measured value of Comparative Example 1 and multiplying the resulting value with 100. A higher recovery rate means a larger amount of ATP production. […] In FIG. 1, “SE” indicates the sesamin-episesamin mixture.

SMILES	Measured value: amount of ATP production (amount of decrease in oxygen consumption rate by the ATP synthase inhibitor) [pmol/min/10^3 cells]	increase in the amount of ATP production compared to the H2O2-treated group according to Comparative Example 1 (TIG-3 cells, H2O2 800 μM) [%]	Recovery rate (%) from Comparative Example 1 (TIG-3 cells) [%]	decline in the amount of ATP production compared to the H2O2-treated group according to Comparative Example 1 (TIG-3 cells, H2O2 800 μM) [%]
O=C([O-])c1cc(C(=O)[O-])c2c(n1)C(=O)C(=O)c1cc(C(=O)O)[nH]c1-2.[Na+].[Na+] [Comparative Example 6, PQQ·2Na]	6.49	1.1	101.1	–
O=C([O-])c1cc(C(=O)[O-])c2c(n1)C(=O)C(=O)c1cc(C(=O)O)[nH]c1-2.[Na+].[Na+] [Comparative Example 9, PQQ·2Na]	7.56	17.8	117.8	–
O=C([O-])c1cc(C(=O)[O-])c2c(n1)C(=O)C(=O)c1cc(C(=O)O)[nH]c1-2.[Na+].[Na+] [Comparative Example 5, PQQ·2Na]	6.06	–	94.5	5.5
O=C([O-])c1cc(C(=O)[O-])c2c(n1)C(=O)C(=O)c1cc(C(=O)O)[nH]c1-2.[Na+].[Na+] [Comparative Example 8, PQQ·2Na]	7.40	15.3	115.3	–
O=C([O-])c1cc(C(=O)[O-])c2c(n1)C(=O)C(=O)c1cc(C(=O)O)[nH]c1-2.[Na+].[Na+] [Comparative Example 7, PQQ·2Na]	6.71	4.6	104.6	–
